Measurements: the CheMixHub ionic liquid set

Experiment: xn = mol fraction of the nth substance listed

[I-].[Li+] + CC[n+]1ccn(C)c1.O=S(=O)([O-])C(F)(F)F
electrical conductivity [S/m], 101 kPa
Details | 288.15 K | 298.15 K | 333.15 K
x1 = 0.007746 | 0.575 | 0.843 | 2.22
x1 = 0.01537 | 0.548 | 0.817 | 2.15
x2 = 0.9746 | 0.556 | 0.827 | 2.17

CCCCCC[n+]1ccn(C)c1.O=[N+]([O-])[O-] + CCCC(C)O
100 kPa
Details | viscosity [mPa·s]
293.15 K, x1 = 0.2408 | 23.7
293.15 K, x1 = 0.7401 | 258
293.15 K, x1 = 0.8508 | 417
298.15 K, x1 = 0.1609 | 10.16
303.15 K, x1 = 0.0814 | 4.67
303.15 K, x1 = 0.7401 | 113.5
308.15 K, x1 = 0.7401 | 75.3
313.15 K, x1 = 0.0814 | 2.69
323.15 K, x1 = 0.0814 | 1.71
323.15 K, x1 = 0.6509 | 16.03
323.15 K, x1 = 1 | 110.9

CCCC[n+]1ccn(C)c1C.F[B-](F)(F)F + CCCCn1cc[n+](C)c1C.O=S(=O)([N-]S(=O)(=O)C(F)(F)F)C(F)(F)F
100 kPa
Details | electrical conductivity [S/m]
313.15 K, x2 = 0.5 | 0.313
318.15 K, x2 = 0.3 | 0.332
318.15 K, x2 = 0.5 | 0.388
318.15 K, x2 = 0.8 | 0.493
323.15 K, x2 = 0 | 0.202
323.15 K, x2 = 0.2 | 0.398
323.15 K, x2 = 0.3 | 0.415
323.15 K, x2 = 0.4 | 0.445
328.15 K, x2 = 0 | 0.26
333.15 K, x2 = 0.6 | 0.687
338.15 K, x2 = 0 | 0.447
338.15 K, x2 = 0.3 | 0.734
338.15 K, x2 = 0.4 | 0.774
338.15 K, x2 = 0.6 | 0.806
348.15 K, x2 = 0.4 | 1.04
348.15 K, x2 = 0.8 | 1.23
348.15 K, x2 = 0.9 | 1.4
353.15 K, x2 = 0.8 | 1.32
358.15 K, x2 = 0.1 | 1.33
358.15 K, x2 = 0.5 | 1.39
358.15 K, x2 = 0.7 | 1.42
358.15 K, x2 = 0.8 | 1.49
363.15 K, x2 = 0.5 | 1.56

CCCOCCn1cc[n+](C)c1.O=S(=O)([N-]S(=O)(=O)C(F)(F)F)C(F)(F)F + O
101 kPa, x1 = 0.8306
Details | viscosity [mPa·s]
283 K | 78.3
298.1 K | 38.7

CCCC[N+](CCCC)(CCCC)CCCC.O=S(=O)([O-])O + CCCCCCCCCO
101.3 kPa, x1 = 0.2
Details | electrical conductivity [S/m] | viscosity [mPa·s]
293.15 K | 0.00273 | 164.6
298.15 K | 0.00375 | –
303.15 K | 0.00499 | –
308.15 K | 0.00648 | 84.2
313.15 K | 0.0082 | 65.8

CCOS(=O)(=O)[O-].CC[n+]1ccn(C)c1 + CC[n+]1ccn(C)c1.N#C[S-]
Details | viscosity [mPa·s]
353.15 K, 100 kPa, x2 = 0 | 15
